According to patent US20120142771A1, “BIPHENYLACETAMIDE DERIVATIVE” (Dainippon Sumitomo Pharma Co., Ltd., priority 2008, published 2012):

Tested on: amygdala-kindling model
Assay: Amygdala-kindling model in rats
Format: in vivo
Source text: Test 3: Test with Amygdala-Kindling Model in Rats
Test 3 evaluates the anticonvulsant action of medicaments in rats, besides mice in Tests 1 and 2. Animal model (kindling model) used herein is a very similar model to clinical findings of focal onset seizures (i.e. simple partial seizure, complex partial seizure, and secondarily generalized tonic-clonic seizure), which is known to provide excellent clinical prediction. A chronic electrode was implanted in the cortex (frontal and posterior regions) and the amygdala of Slc: Wistar male rats (body weight 250-300 g). One week after the above operation, electrical stimulation (50 Hz, 400 μA, 1 second) into the amygdala was conducted once a day for about two weeks. The stimulation condition was determined according to the method of Loscher et al. [Epilepsy Res., 40: 63-77 (2000)]. The stimulation was continued until the seizure stage 5 in the seizure severity stages according to the method of Racine et al. [Motor seizure. Electroenceph. Clin. Neurophysiol., 32:281-294 (1972)] was observed 10 consecutive times. Kindling model was thus completed. Then, test compounds (100 mg/kg) were orally administered to this model. After an hour of administration, the rats were evaluated based on three parameters, i.e., a threshold stimulus current to induce seizure (i.e. seizure threshold), the duration of afterdischrage observed on an electroencephalogram, and seizure severity (stage scores 1-5). The results of the seizure threshold and the afterdischarge duration were shown as average percentage of change from the pretreatment value obtained before the administration of each test compound. To the control rats, 0.5% tragacanth solution was administered. Minus means decreased or shortened.

NC(=O)Cc1ccccc1-c1ccccc1F [Example 1, 2-(2′-Fluorobiphenyl-2-yl)acetamide]
Seizure threshold (uA) Δ % change (100 mg/kg oral, 1 hour after administration, average percentage of change from pretreatment value): 69.3% | Afterdischarge duration (sec) Δ % change (100 mg/kg oral, 1 hour after administration, change from pretreatment value, minus means shortened): −88% | Seizure severity score (100 mg/kg oral, 1 hour after administration, stage scores 1-5): 2.0 | efficacy against the amygdala-kindling model (oral administration at a dose of 100 mg/kg): potent efficacy
